Assay results: patent US20040062807A1, “Biocide compositions and a method for their production” (priority 2001, published 2004)

Key:
unidentified mold = assay: Growth of mold on petri dishes with fungicide composition in growth media (diameter); type: cell-based; conditions: 25° C., 3-5 days
Procedure: The fungus was allowed to grow at 25° C. for 3-5 days. At the end of this period, the diameter of the fungus on the plate was measured. All results were duplicated to assure accuracy.

fungus spores = assay: Fungus spore germination in growth media with fungicide composition (colony count); type: cell-based, unidentified mold; conditions: 3-5 days incubation
Procedure: The fungus was allowed to grow at 25° C. for 3-5 days. At the end of this period, the diameter of the fungus on the plate was measured. All results were duplicated to assure accuracy. In a second series of experiments, the growth of fungus spores was measured under the same conditions as those described above. The number of colonies were measured, again after 3-5 days of incubation.

[1] = 15% composition in growth media
[2] = 25% composition in growth media

## O=C([O-])[O-].[Ca+2] [Calcium carbonate]
Unidentified mold; 5% composition in growth media
  Growth of Fungus (CFU diameter): 9 cm
Unidentified mold; [1]
  Growth of Fungus (CFU diameter): 9 cm
Unidentified mold; [2]
  Growth of Fungus (CFU diameter): 9 cm
Fungus spores; 5% composition in growth media
  Fungus Germination (CFU per ml): 100 CFU per ml
Fungus spores; [1]
  Fungus Germination (CFU per ml): 150 CFU per ml
Fungus spores; [2]
  Fungus Germination (CFU per ml): 110 CFU per ml
